Source: paper PMC13193388, “Dimerization‐dependent NOTCH receptor transactivation unveils a class of highly selective NOTCH signalling inhibitors” (The Febs Journal, 2025)
“Also recorded” adds a separate entry of the source.

Key:
N3 receptor [1] = assay: N3 receptor dimerization (immobilized HIS-N3 with HA-N3, western blot); type: biochemical, human; conditions: peptides 10 μM unless otherwise stated, n = 3
Experimental: (§1) Human embryonic kidney (HEK) 293 T cells (RRID:CVCL_0063) were cultured in Dulbecco's Modified Eagle Medium (DMEM) (Gibco, Grand Island, NY, USA) supplemented with 10% fetal bovine serum (FBS) (Gibco). This cell line was obtained from the American Type Culture Collection (ATCC, Manassas, VA, USA). T‐ALL cell lines (kindly provided by Professor Jan Cools – VIB, Leuven): MOLT4 (RRID:CVCL_0013), ALL SIL (RRID:CVCL_1805), DND‐41 (RRID:CVCL_2022), HPB‐ALL (RRID:CVCL_1820), SUP‐T1 (RRID:CVCL_1714) and JURKAT (RRID:CVCL_0065), were cultured in Roswell Park Memorial Institute (RPMI) 1640 medium (Gibco) supplemented with 10% FBS (Gibco). […] RNA isolation, first‐strand cDNA synthesis and analysis of expression of transcripts by quantitative (q) PCR were performed as described previously. […] Expression of these proteins was determined using antibodies directed against either the coding region of the protein or the epitope tag. […]
(§2) Domains for recombinant protein production were cloned into the pET 28a vector in‐frame to an N‐terminal HIS6 epitope. […] Protein yields were determined by Bradford assay (Bio‐Rad, Hercules, CA, USA), and relative protein integrity and purity were determined by SDS/PAGE and Colloidal Blue staining (Invitrogen, Carlsbad, CA, USA). […] Proteins were separated by SDS/PAGE and associated proteins were detected by western blotting.

NOTCH3-ECD = molecular target: T1, NOTCH3-ECD (Homo sapiens, UniProt Q9UM47); assay: SPR peptide binding to immobilized recombinant NOTCH3-ECD
T1 construct: we purified the complete (recombinant) N3 ECD from human tissue culture cells; made in house; host or cells: PEC.3.30 (modified Per.E2A human cells), purified from culture supernatant
Experimental: (§3) The NOTCH3‐ECD protein was produced using PEC.3.30, which is modified Per.E2A cells. DMEM cell supernatant containing the NOTCH3‐ECD protein was collected for purification. The supernatant was loaded onto a HisTrap high‐performance (HP) column (Cytiva, Uppsala, Sweden) and eluted with a gradient buffer that included 500 mM imidazole, 25 mM HEPES at pH 7.5 and 500 mM NaCl. The pooled fractions were concentrated using a 50 000 molecular weight cut‐off (MWCO) centrifugal filter (Millipore, Merck KGaA, Darmstadt, Germany), resulting in a buffer of 10 mM imidazole, 25 mM HEPES at pH 7.5 and 100 mM NaCl. The concentrated protein solution was subsequently loaded onto a Superdex 200 16/600 gel filtration column (Cytiva, Uppsala, Sweden), which was equilibrated with 25 mM HEPES at pH 7.5 and 100 mM NaCl. Similar yields of purified protein were obtained across all samples. The purified proteins were snap‐frozen in liquid nitrogen immediately after purification and stored at −80 °C.
Peptide binding to the NOTCH3‐ECD protein using SPR was performed using a Biacore T200. The NOTCH3‐ECD protein was immobilized onto a Biacore NTA Series S Sensor Chip (Cytiva), at a concentration of 0.1 μg·μL^−1 using Nickel‐NTA capture‐coupling, resulting in approximately 3500 RU of immobilized protein. Peptides were introduced using the ‘Eject rack’ function, followed by analysis. […]

N3 ECD homodimer = assay: Nondenaturing gel: disruption of purified N3 ECD homodimer; type: biochemical, human; conditions: nondenaturing acrylamide gel, purified HIS-tagged N3 ECD; n = 3
Experimental: as §3

N3 receptor [2] = assay: N3 transactivation luciferase reporter assay; type: cell-based, human
Experimental: (§4) Reporter assays were performed as previously described. Briefly, stable cell lines expressing epitope‐tagged ligands and receptors were established via infection of cells with lentiviruses harbouring the appropriate ligand/receptor cDNA followed by selection with the encoded antibiotic (puromycin or neomycin). For transactivation assays, cells co‐expressing receptor and reporter were cocultured with cells stably expressing ligand alone (to enable transactivation). […] For each experiment, cells were seeded in triplicate in 12‐well plates. The NOTCH luciferase reporter harboured 10× Recombination Signal Binding Protein for Immunoglobulin kappa J (RBPJ) consensus DNA‐binding sites, and was cotransfected with thymidine kinase promoter‐driven Renilla luciferase control plasmid. Additionally, transfection efficiencies (routinely > 90%) were determined through visualization of cotransfected plasmid encoding the Tomato fluorescence reporter. Cells were lysed 36 h postplating, and luciferase activity was measured using a luciferase assay substrate (Promega). Luciferase activity was normalized by measuring Renilla luciferase activity (Promega). Where indicated, assays were performed in the presence or absence of 10 μM DAPT (Sigma‐Aldrich, St. Louis, MO, USA). Receptor and ligand protein levels were determined by western blotting. Experiments were performed three times. […]

N3 receptor [3] = assay: Cell surface ligand-N3 receptor binding assay; type: cell-based, human; conditions: 293 T cells stably expressing HA-tagged N3, crosslinked, western blot; n = 3
Experimental: (§5) Confluent 10‐cm dishes of 293 T cells stably expressing HA epitope‐tagged NOTCH receptors were washed with ice‐cold phosphate buffered saline (PBS)/bovine serum albumen (BSA) (1 mg·mL^−1). Cells were stimulated with 50 μL of ligand (0.5 mg·mL^−1) in the presence of 1.5 mL of PBS/BSA (1 mg·mL^−1) for 1 h, with gentle shaking, at 4 °C. Cells were washed once with PBS. Cells were incubated with crosslinkers in the presence of 2 mL of ice‐cold PBS for 15 min, with gentle shaking at 4 °C: 0.27 μM disuccinimidyl suberate (DSS) (Pierce, Rockford, IL, USA) and 0.07 μM bis‐sulfosuccinimidyl suberate (BS3) (Pierce). Cells were washed once with ice‐cold detachment buffer (10 mM Tris–HCl pH 7.4, 1 mM EDTA pH 7.4, 10% glycerol), scraped off the plates in 1 mL of detachment buffer and transferred to Eppendorf tubes. Cell pellets were lysed in 1 mL of solubilization buffer (125 mM NaCl, 10 mM Tris–HCl pH 7.4, 1 mM EDTA pH 7.4, 1% Triton X‐100) on ice for 30 min and centrifuged at 13000 r.p.m. for 10 min. Supernatants were incubated with HA antibody (Covance, Princeton, NJ, USA) overnight at 4 °C. 50 μL of washed (4×) protein A/G beads (50% solution) was added, and samples were incubated for 45 min at 4 °C. The beads were washed four times with solubilization buffer. 50 μL of sample buffer was added and samples were boiled for 5–10 min prior to gel electrophoresis. […]

N2 receptor [4] = assay: N2 transactivation luciferase reporter assay; type: cell-based, human; conditions: Fig. 4A,E, n = 3
Experimental: as §4

N3 receptor [5] = assay: Ligand-dependent N3 receptor cleavage (western blot); type: cell-based, human; conditions: 293 T cells, recombinant DLL1, peptides 10 μM unless otherwise stated
Experimental: (§6) Human embryonic kidney (HEK) 293 T cells (RRID:CVCL_0063) were cultured in Dulbecco's Modified Eagle Medium (DMEM) (Gibco, Grand Island, NY, USA) supplemented with 10% fetal bovine serum (FBS) (Gibco). This cell line was obtained from the American Type Culture Collection (ATCC, Manassas, VA, USA). T‐ALL cell lines (kindly provided by Professor Jan Cools – VIB, Leuven): MOLT4 (RRID:CVCL_0013), ALL SIL (RRID:CVCL_1805), DND‐41 (RRID:CVCL_2022), HPB‐ALL (RRID:CVCL_1820), SUP‐T1 (RRID:CVCL_1714) and JURKAT (RRID:CVCL_0065), were cultured in Roswell Park Memorial Institute (RPMI) 1640 medium (Gibco) supplemented with 10% FBS (Gibco). Cells were maintained in a 5% CO2, 37 °C humidified incubator, tested monthly for mycoplasma contamination using a MycoAlert kit (Lonza, Walkersville, MD, USA), and checked for authenticity, in the last 3 years, by an in‐house service using short tandem repeat (STR) profiling. Transfections, lentivirus production and cell infections, western blotting and co‐immunoprecipitations have been described previously. […] RNA isolation, first‐strand cDNA synthesis and analysis of expression of transcripts by quantitative (q) PCR were performed as described previously. […] Expression of these proteins was determined using antibodies directed against either the coding region of the protein or the epitope tag. […]

NOTCH receptors = assay: Endogenous HEY expression in 293 T cells expressing NOTCH receptors (real-time qPCR); type: cell-based, human; conditions: 3 h, DAPT 20 μM, n = 3 (Fig. 4F)
Experimental: as §6

N3 receptor [6] = assay: N3 downstream NOTCH target gene expression (real-time qPCR); type: cell-based, human; conditions: 293 T cells with HA-N3, recombinant DLL1, 3 h, n = 3
Experimental: as §6

N2 receptor [7] = assay: Cell surface ligand-N2 receptor binding assay; type: cell-based, human; conditions: Fig. 4D; n = 3
Experimental: as §5

N2 receptor [8] = assay: N2 receptor dimerization (immobilized HIS-N2 with HA-N2, western blot); type: biochemical, human; conditions: HIS-N2 on nickel beads with HA-N2, western blot; n = 3
Experimental: as §1, §2

N2 receptor [9] = assay: Ligand-dependent N2 receptor cleavage (western blot); type: cell-based, human; conditions: 293 T cells with HA-N2, recombinant DLL1; n = 3
Experimental: as §6

T1 sequence (Q9UM47 40-1643 limits assumed): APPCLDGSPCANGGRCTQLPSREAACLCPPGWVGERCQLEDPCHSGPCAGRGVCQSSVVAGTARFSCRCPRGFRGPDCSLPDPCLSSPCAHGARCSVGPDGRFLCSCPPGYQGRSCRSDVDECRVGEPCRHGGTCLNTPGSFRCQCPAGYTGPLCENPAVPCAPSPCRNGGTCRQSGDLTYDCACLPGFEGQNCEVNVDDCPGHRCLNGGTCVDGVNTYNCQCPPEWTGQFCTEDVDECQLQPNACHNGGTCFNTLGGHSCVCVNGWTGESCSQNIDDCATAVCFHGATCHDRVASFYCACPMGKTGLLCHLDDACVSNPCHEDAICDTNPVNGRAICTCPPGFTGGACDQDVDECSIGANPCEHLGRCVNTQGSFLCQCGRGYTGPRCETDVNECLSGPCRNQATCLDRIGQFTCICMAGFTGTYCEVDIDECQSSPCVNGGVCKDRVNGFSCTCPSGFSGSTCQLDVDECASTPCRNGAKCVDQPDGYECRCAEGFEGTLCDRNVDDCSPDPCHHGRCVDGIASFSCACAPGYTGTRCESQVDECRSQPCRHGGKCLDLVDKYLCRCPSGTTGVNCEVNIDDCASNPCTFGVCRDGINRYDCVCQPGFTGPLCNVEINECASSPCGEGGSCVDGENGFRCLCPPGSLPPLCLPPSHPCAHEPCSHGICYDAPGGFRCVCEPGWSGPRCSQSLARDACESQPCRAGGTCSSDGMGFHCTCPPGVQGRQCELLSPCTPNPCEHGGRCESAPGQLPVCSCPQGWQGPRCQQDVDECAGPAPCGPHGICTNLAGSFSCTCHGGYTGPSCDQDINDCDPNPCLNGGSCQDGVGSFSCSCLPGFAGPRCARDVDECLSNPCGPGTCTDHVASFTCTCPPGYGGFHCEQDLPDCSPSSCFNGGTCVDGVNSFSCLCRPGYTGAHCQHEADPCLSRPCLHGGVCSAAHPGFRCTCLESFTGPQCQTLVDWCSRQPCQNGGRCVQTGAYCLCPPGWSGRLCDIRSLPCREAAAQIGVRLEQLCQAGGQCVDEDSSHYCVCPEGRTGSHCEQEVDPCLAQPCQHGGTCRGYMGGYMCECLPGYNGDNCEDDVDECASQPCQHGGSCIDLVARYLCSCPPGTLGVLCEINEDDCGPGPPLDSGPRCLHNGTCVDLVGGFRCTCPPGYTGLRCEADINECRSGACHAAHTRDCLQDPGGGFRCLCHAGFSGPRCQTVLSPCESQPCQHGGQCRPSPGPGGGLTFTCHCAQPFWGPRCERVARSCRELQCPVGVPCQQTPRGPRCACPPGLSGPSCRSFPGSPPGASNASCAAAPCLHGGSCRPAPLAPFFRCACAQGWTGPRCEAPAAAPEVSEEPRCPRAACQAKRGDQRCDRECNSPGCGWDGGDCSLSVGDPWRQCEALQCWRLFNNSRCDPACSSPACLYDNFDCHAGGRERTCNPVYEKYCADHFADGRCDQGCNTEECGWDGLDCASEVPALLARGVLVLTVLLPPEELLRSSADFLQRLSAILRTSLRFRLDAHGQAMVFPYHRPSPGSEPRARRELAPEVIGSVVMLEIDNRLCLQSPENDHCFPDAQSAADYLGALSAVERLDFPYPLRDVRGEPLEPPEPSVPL

Row | Sequence | inhibition of N3 receptor dimerization (N3 receptor [1]) | K D (range in words) (NOTCH3-ECD; pure recombinant N3 ECD purified from human cells) | disruption of N3 ECD homodimer (N3 ECD homodimer) | selectivity for N3 over N2 and N1 (N3 receptor [2]; Fig. 4E) | inhibition of N3 transactivation (NOTCH reporter) (N3 receptor [2]; coculture with ligand cells, lysed 36 h postplating, peptides 10 μM unless otherwise stated, n = 3) | block of stable ligand-receptor binding at the cell surface (N3) (N3 receptor [3]) | effect on N2 receptor transactivation / downstream gene activation (N2 receptor [4]) | inhibition of ligand-dependent N3 receptor cleavage (N3 receptor [5]) | suppression of NOTCH-driven gene expression compared to DAPT (NOTCH receptors) | inhibition of downstream NOTCH target genes (N3) (N3 receptor [6]) | effect on stable N2 receptor-ligand binding at the cell surface (N2 receptor [7]) | effect on N2 receptor dimerization (N2 receptor [8]) | effect on N2 receptor cleavage (N2 receptor [9]) | binding to N3 ECD (NOTCH3-ECD; control peptide with motif core mutated to glycine)
1 | EKYCADHFADGR [N34, N3 peptide (…) centred on the helix encompassing the core dimerization motif] | robustly inhibit | low nM range | disrupted | exquisite selectivity for N3 (and not N2 or N1 | robustly inhibit; also recorded: inhibited N3 receptor activity | efficiently blocked | little detectable effect | robustly inhibit | as efficiently as the generic gamma secretase inhibitor (GSI), DAPT | robustly inhibit | little detectable effect | little detectable effect | little detectable effect | –
2 | EKYGGGHFADGR [control peptide, control peptide (…), core of the dimerization motif mutated (to glycine), reference compound] | – | – | – | – | – | – | – | – | – | – | – | – | – | failed to bind efficiently to the N3 ECD
